How the values were obtained:
velvetleaf [1] = assay: Test Example 5: herbicidal effect by foliage application, plastic box (Table 20, symbol M); assay type: in vivo, velvetleaf (Abutilon theophrasti); conditions: foliage application, AAH 320 g/ha, evaluated three weeks after application
Procedure, shortened: (§1)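 Plants sown in sterilized diluvial soil and grown 14 days in a greenhouse at 25° C to 30° C, then sprayed on the foliage with the compound's emulsion diluted in water to a predetermined herbicide amount. Injury to weeds and crops scored three weeks after application on a visual rating scale.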

green foxtail [2] = assay: Test Example 5: herbicidal effect by foliage application, plastic box (Table 20, symbol G); assay type: in vivo, green foxtail (Setaria viridis); conditions: foliage application, AAH 320 g/ha, evaluated three weeks after application
Procedure, shortened: as §1

Japanese bulrush [3] = assay: Test Example 2: herbicidal activity, application during weed generation under submerged conditions (Table 17, symbol B); assay type: in vivo, Japanese bulrush (Schoenoplectus juncoides); conditions: AAH 320 g/ha; application during weed generation, submerged conditions
Procedure, shortened: (§2)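 Steps: fill Wagner pots with alluvial soil; add water to give 4 cm depth; sow the species mixed; grow under glass at 25–30° C.; at 1–2 leaves apply water-diluted emulsion formulation to the water surface at a fixed herbicide amount; score after 3 weeks.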

Japanese bulrush [4] = assay: Test Example 1: herbicidal activity, application before weed generation under submerged conditions (Table 16, symbol B); assay type: in vivo, Japanese bulrush (Schoenoplectus juncoides); conditions: 320 g/ha applied herbicide
Procedure, shortened: (§3)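 Submerged Wagner pots (alluvial soil, 4 cm water) sown with weed seeds and planted with 2.5-leaf rice seedlings; emulsifiable concentrate diluted in water applied to water surface on sowing day. Held in greenhouse at 25-30 °C; injury scored 0-5 by herbicidal rate after three weeks.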

barnyard grass [5] = assay: Test Example 4: herbicidal effect by soil treatment (Table 19, symbol H); assay type: in vivo, barnyard grass (Echinochloa crus-galli); conditions: amount of applied herbicide 320 g/ha
Procedure, shortened: (§4)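 Three weeks of greenhouse growth at 25° C. to 30° C. followed a uniform surface spray of water-diluted emulsion at a predetermined herbicide amount. Seeds had been sown beforehand under about 1.5 cm of sterilized diluvial soil. Grading followed criteria set out in an earlier test.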

oval-leafed pondweed [6] = assay: Test Example 1: herbicidal activity, application before weed generation under submerged conditions (Table 16, symbol C); assay type: in vivo, oval-leafed pondweed (Monochoria vaginalis); conditions: 320 g/ha applied herbicide
Procedure, shortened: as §3

persian speedwell [7] = assay: Test Example 5: herbicidal effect by foliage application, plastic box (Table 20, symbol R); assay type: in vivo, Persian speedwell (Veronica persica); conditions: foliage application, AAH 320 g/ha, evaluated three weeks after application
Procedure, shortened: as §1

green foxtail [8] = assay: Test Example 4: herbicidal effect by soil treatment (Table 19, symbol G); assay type: in vivo, green foxtail (Setaria viridis); conditions: amount of applied herbicide 320 g/ha
Procedure, shortened: as §4

blackgrass [9] = assay: Test Example 4: herbicidal effect by soil treatment (Table 19, symbol J); assay type: in vivo, blackgrass (Alopecurus myosuroides); conditions: amount of applied herbicide 320 g/ha
Procedure, shortened: as §4

persian speedwell [10] = assay: Test Example 4: herbicidal effect by soil treatment (Table 19, symbol R); assay type: in vivo, Persian speedwell (Veronica persica); conditions: amount of applied herbicide 320 g/ha
Procedure, shortened: as §4

redroot pigweed = assay: Test Example 4: herbicidal effect by soil treatment (Table 19, symbol N); assay type: in vivo, redroot pigweed (Amaranthus retroflexus); conditions: amount of applied herbicide 320 g/ha
Procedure, shortened: as §4

barnyard grass [11] = assay: Test Example 3: herbicidal effect by foliage application, Wagner pot (Table 18, symbol H); assay type: in vivo, barnyard grass (Echinochloa crus-galli); conditions: amount of applied herbicide 320 g/ha
Procedure, shortened: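 Plants were sown in alluvial soil held under 0.1–0.5 cm standing water and grown 14 days in a greenhouse at 25–30 °C. An emulsifiable formulation, water-diluted to the set dose, was then sprayed onto the foliage, and effects were scored three weeks later using previously defined criteria.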

velvetleaf [12] = assay: Test Example 4: herbicidal effect by soil treatment (Table 19, symbol M); assay type: in vivo, velvetleaf (Abutilon theophrasti); conditions: amount of applied herbicide 320 g/ha
Procedure, shortened: as §4

blackgrass [13] = assay: Test Example 5: herbicidal effect by foliage application, plastic box (Table 20, symbol J); assay type: in vivo, blackgrass (Alopecurus myosuroides); conditions: foliage application, AAH 320 g/ha, evaluated three weeks after application
Procedure, shortened: as §1

oval-leafed pondweed [14] = assay: Test Example 2: herbicidal activity, application during weed generation under submerged conditions (Table 17, symbol C); assay type: in vivo, oval-leafed pondweed (Monochoria vaginalis); conditions: AAH 320 g/ha; application during weed generation, submerged conditions
Procedure, shortened: as §2

southern crabgrass = assay: Test Example 5: herbicidal effect by foliage application, plastic box (Table 20, symbol F); assay type: in vivo, southern crabgrass (Digitaria ciliaris); conditions: foliage application, AAH 320 g/ha, evaluated three weeks after application
Procedure, shortened: as §1

windgrass = assay: Test Example 5: herbicidal effect by foliage application, plastic box (Table 20, symbol L); assay type: in vivo, windgrass (Apera spica-venti); conditions: foliage application, AAH 320 g/ha, evaluated three weeks after application
Procedure, shortened: as §1

| SMILES | M: velvetleaf, herbicidal effect (criteria 0-5) (velvetleaf [1]) | G: green foxtail, herbicidal effect (criteria 0-5) (green foxtail [2]) | herbicidal effect rating, B: Japanese bulrush (Japanese bulrush [3]) | Herbicidal effect on B: Japanese bulrush (grade 0-5) (Japanese bulrush [4]) | herbicidal effect on H: barnyard grass (barnyard grass [5]) | Herbicidal effect on C: oval-leafed pondweed (grade 0-5) (oval-leafed pondweed [6]) | R: persian speedwell, herbicidal effect (criteria 0-5) (persian speedwell [7]) | herbicidal effect on G: green foxtail (green foxtail [8]) | herbicidal effect on J: blackgrass (blackgrass [9]) | herbicidal effect on R: persian speedwell (persian speedwell [10]) | herbicidal effect on N: redroot pigweed (redroot pigweed) | herbicidal effect on H: barnyard grass (barnyard grass [11]) | herbicidal effect on M: velvetleaf (velvetleaf [12]) | J: blackgrass, herbicidal effect (criteria 0-5) (blackgrass [13]) | herbicidal effect rating, C: oval-leafed pondweed (oval-leafed pondweed [14]) | F: southern crabgrass, herbicidal effect (criteria 0-5) (southern crabgrass) | L: windgrass, herbicidal effect (criteria 0-5) (windgrass) |
| --- | --- | --- | --- | --- | --- | --- | --- | --- | --- | --- | --- | --- | --- | --- | --- | --- | --- |
| CCCC(=O)Oc1c(C)nn(C)c(=O)c1-c1c(-c2ccc(SC3CC3)cc2)sc2ccc(F)cc12 [2-255] | 5 (Herbicidal rate of 90% or more (almost completely withered)) | 5 (Herbicidal rate of 90% or more (almost completely withered)) | 3 (Herbicidal rate of 40% or more and less than 70%) | 3 (Herbicidal rate of 40% or more and less than 70%) | 0 (Herbicidal rate of 5% or less (almost no effect)) | 3 (Herbicidal rate of 40% or more and less than 70%) | 5 (Herbicidal rate of 90% or more (almost completely withered)) | 1 (Herbicidal rate of 5% or more and less than 20%) | 1 (Herbicidal rate of 5% or more and less than 20%) | 5 (Herbicidal rate of 90% or more (almost completely withered)) | 4 (Herbicidal rate of 70% or more and less than 90%) | 5 (Herbicidal rate of 90% or more (almost completely withered)) | 3 (Herbicidal rate of 40% or more and less than 70%) | 5 (Herbicidal rate of 90% or more (almost completely withered)) | 2 (Herbicidal rate of 20% or more and less than 40%) | 5 (Herbicidal rate of 90% or more (almost completely withered)) | 5 (Herbicidal rate of 90% or more (almost completely withered)) |
| Cc1nn(C)c(=O)c(-c2c(-c3ccc(OC(F)F)cc3)sc3ccc(F)cc23)c1OC(=O)COc1ccccc1 [2-284] | 5 (Herbicidal rate of 90% or more (almost completely withered)) | 5 (Herbicidal rate of 90% or more (almost completely withered)) | 3 (Herbicidal rate of 40% or more and less than 70%) | 3 (Herbicidal rate of 40% or more and less than 70%) | 5 (Herbicidal rate of 90% or more (almost completely withered)) | 3 (Herbicidal rate of 40% or more and less than 70%) | 5 (Herbicidal rate of 90% or more (almost completely withered)) | 5 (Herbicidal rate of 90% or more (almost completely withered)) | 5 (Herbicidal rate of 90% or more (almost completely withered)) | 5 (Herbicidal rate of 90% or more (almost completely withered)) | 5 (Herbicidal rate of 90% or more (almost completely withered)) | 5 (Herbicidal rate of 90% or more (almost completely withered)) | 5 (Herbicidal rate of 90% or more (almost completely withered)) | 5 (Herbicidal rate of 90% or more (almost completely withered)) | 3 (Herbicidal rate of 40% or more and less than 70%) | 3 (Herbicidal rate of 40% or more and less than 70%) | 4 (Herbicidal rate of 70% or more and less than 90%) |
| Cc1ccccc1C(=O)Oc1c(C)nn(C)c(=O)c1-c1c(-c2ccc(OC(F)F)cc2)sc2ccc(F)cc12 [2-285] | 5 (Herbicidal rate of 90% or more (almost completely withered)) | 3 (Herbicidal rate of 40% or more and less than 70%) | 3 (Herbicidal rate of 40% or more and less than 70%) | 3 (Herbicidal rate of 40% or more and less than 70%) | 0 (Herbicidal rate of 5% or less (almost no effect)) | 0 (Herbicidal rate of 5% or less (almost no effect)) | 5 (Herbicidal rate of 90% or more (almost completely withered)) | 0 (Herbicidal rate of 5% or less (almost no effect)) | 0 (Herbicidal rate of 5% or less (almost no effect)) | 3 (Herbicidal rate of 40% or more and less than 70%) | 0 (Herbicidal rate of 5% or less (almost no effect)) | 5 (Herbicidal rate of 90% or more (almost completely withered)) | 0 (Herbicidal rate of 5% or less (almost no effect)) | 4 (Herbicidal rate of 70% or more and less than 90%) | 0 (Herbicidal rate of 5% or less (almost no effect)) | 1 (Herbicidal rate of 5% or more and less than 20%) | 0 (Herbicidal rate of 5% or less (almost no effect)) |
| Cc1nn(C)c(=O)c(-c2c(-c3ccc(OC(F)F)cc3)sc3ccc(F)cc23)c1OC(=O)c1cccs1 [2-288] | 5 (Herbicidal rate of 90% or more (almost completely withered)) | 5 (Herbicidal rate of 90% or more (almost completely withered)) | 3 (Herbicidal rate of 40% or more and less than 70%) | 5 (Herbicidal rate of 90% or more (almost completely withered)) | 2 (Herbicidal rate of 20% or more and less than 40%) | 4 (Herbicidal rate of 70% or more and less than 90%) | 5 (Herbicidal rate of 90% or more (almost completely withered)) | 4 (Herbicidal rate of 70% or more and less than 90%) | 0 (Herbicidal rate of 5% or less (almost no effect)) | 5 (Herbicidal rate of 90% or more (almost completely withered)) | 4 (Herbicidal rate of 70% or more and less than 90%) | 5 (Herbicidal rate of 90% or more (almost completely withered)) | 3 (Herbicidal rate of 40% or more and less than 70%) | 4 (Herbicidal rate of 70% or more and less than 90%) | 3 (Herbicidal rate of 40% or more and less than 70%) | 2 (Herbicidal rate of 20% or more and less than 40%) | 3 (Herbicidal rate of 40% or more and less than 70%) |
